Test results taken from publication PMC12767106, “In Situ Assembly of Transformable Monopeptide on Activated Neutrophils Attenuates NETs‐Induced Hepatocellular Carcinoma Metastasis by Disrupting NE Nuclear Translocation” (Advanced Science, 2025).

Tests used:
[1] = test system: Hepa1-6 cells; assay: Trans-endothelial invasion assay; assay type: cell-based, mouse; details: 48 h, versus Control group
Description: (§1) Cell migration and invasion assay […]
(§2) Matrigel tube formation assay
(§3) Murine C166 endothelial cells (3×10^4cells/well) were placed on 96-well plates coated with Matrigel (356231, Corning, New York, USA) and incubated with various treatments. […]
In vitro permeability assays and trans-endothelial invasion assays
For in vitro permeability assays, C166 cells were treated with Resting neutrophils, Control, NFTP-NPs, FTP-NPs, and NEi groups for 48 h to form an endothelial monolayer, and then Evans Blue (PHYGENE, China) was added to the upper layer of the transwell filters (0.4 μm, Corning). After 30 min, the medium in the lower layer of the chamber was collected to measure the absorbance at 620 nm (Tecan Infinite M200, Switzerland).
For trans-endothelial invasion assays, […] Hepa1-6/luc cells were seeded into transwell filters (8 μm, Corning) with endothelial cell monolayers pretreated with resting neutrophils, Control, NFTP-NPs, FTP-NPs, and NEi groups. After incubation for 48 h, the transmembrane cells were washed, fixed with 4% paraformaldehyde, stained with crystal violet, and observed under a microscope (Axiovert 200, Zeiss, Germany).
All the experiments were performed thrice. […]

[2] = test system: Hepa1-6 cells; assay: Transwell migration and Matrigel invasion assay; assay type: cell-based, mouse
Description: as §1
Cell migration was monitored during the overnight culture of the cells. Hepa1-6/luc cells (5×10^5cells/well) were placed in the upper chamber of an 8µm transwell system and incubated in serum-free DMEM, while various treated media with 20% FBS were added to the lower chamber of 24-well plates. After incubation for 48 h, the transmembrane cells were washed, fixed with 4% paraformaldehyde, stained with crystal violet, and observed under a microscope (Axiovert 200, Zeiss, Germany). All the experiments were performed thrice. The Transwell invasion assay was performed using a similar procedure. Hepa1-6/luc cells (1×10^6cells/well) were seeded in the upper chamber of an 8µm transwell system coated with Matrigel (356231, Corning, New York, USA) and incubated in serum-free DMEM. The remaining operations were performed according to the steps of the migration assay. All the experiments were performed thrice.
as §2, §3
In vitro permeability assays and trans-endothelial invasion assays […]

[3] = test system: subcutaneous Hepa1-6/luc tumors; assay: Immune profiling of tumors by flow cytometry, plasma cytokines by ELISA; assay type: in vivo, mouse; details: tumor-bearing mice
Description: Submitted to Advanced Science
Total RNA was extracted and purified using a miRNeasy Mini Kit (FOREGENE, China). Quantitative real-time polymerase chain reaction (qRT-PCR) was performed in triplicate in the ABI 7500 fast real-time PCR System (Applied Biosystems, USA). The mRNAs were normalized with 18s. The following primers were used for PCR detection: E-cadherin, N-cadherin, Vimentin, and α-catenin.
Western blot analysis was performed to evaluate the levels of relative proteins in Hepa1-6/luc cells and Neutrophils.38 To evaluate NETs release, the neutrophils were exposed to PMA, PMA+NFTP -NPs, and PMA+FTP-NPs for 12 h. Following treatment, the cells underwent three PBS washes for WB to measure the expression of CitH3 proteins (Cat. no. ab5103, Abcam, Cambridge, England , UK). Furthermore, to evaluate EMT of Hepa1-6/luc cells, the cells underwent three PBS washes for WB to measure the expression of E - cadherin (Abmart, China), N-cadherin (Abmart, China), Vimentin (Abmart, China) , and β-catenin (Abmart, […]
In vivo subcutaneously implanted tumor models
The C57BL/6J mice with subcutaneous Hepa1-6/luc xenografts (grew up to roughly 100 mm 3) were separated into four groups according to the different treatments to perform the in vivo tumor therapy. PBS, NFTP-NPs, FTP-NPs, and NEi (300 µM in PBS: DMSO = 95:5, 200 µL) were administered intravenously (i.v.) five times every two days to mice. aPD-1 (BE0146, Bio X Cell, USA) was injected intraperitoneally into each mouse at 200μg once every 4 days for 3 doses. Throughout the experiment, the tumor volumes and body weight were measured once every four days. The formula tumor volume=length*1/2 width2 was used to get the tumor volume; at the same time, IVIS (AniView SE, Guangzhou Biolight Biotechnology Co., Ltd) was used to calculate bioluminescence signals in vivo. After therapy (day 20), major organs and blood samples were taken for histological and biochemical investigation as part of a safety assessment. […]
TNF-α, were measured using commercially available ELISA kits to assess the immune activation induced by […]

PpIX-GFFVLK-EAIPMSIPPEVK [FTP-NPs]
number of Hepa1-6 cells passing through the endothelial monolayer [1]: significantly lower | number of invasive cells ([2]; Matrigel-coated transwell, versus Control and NFTP-NPs groups): significantly lower | number of migrating cells ([2]; transwell, 48 h, versus other control groups): significantly reduced | plasma IL-6 level [3]: significantly higher | plasma IL-10 level [3]: decreased | plasma TNF-α level [3]: significantly higher
